These results are taken from PubChem BioAssay (NCI).

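Cells were grown in 96-well plates and exposed to each compound for 48 hours at five concentrations; endpoints were interpolated linearly between bracketing concentrations, or set to the highest concentration if not reached. GI50: concentration for 50% inhibition of growth. TGI: concentration producing complete growth inhibition.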 Bounds are passed on as bounds.

What all share (assay): NCI-60 cell line screen, 48 h
In assay [1] the test system is NCI-H460 lung.
Assay [2] relates to NCI-H23 lung.
The subject of assay [3] is HT29 colon.
Assay [4] has as its system MCF7 breast.
Assay [5] has as its system HOP-62 NSCLC.
Assay [6] deals with SK-MEL-2 melanoma.
Assay [7] has as its system RPMI-8226 leukemia.
The test system of assay [8] is NCI/ADR-RES ovarian.
Assay [9] deals with PC-3 prostate.
The test system of assay [10] is RXF 393 renal.

Consider `CC(=O)O[C@@H]1C[C@@]2(C)[C@@H]3CC=C4[C@@H](C[C@H](O)C(=O)C4(C)C)[C@]3(C)C(=O)C[C@]2(C)[C@H]1[C@@](C)(O)C(=O)/C=C/C(C)(C)OC(C)=O`, for which the TGI in [1] was 16.3 µM; in assay [2], 24.1 µM; in assay [3], more than 100 µM; in assay [4] it was more than 100 µM; in assay [5] it was 5.29 µM; in [6], more than 25.4 µM. For the same compound, the results for the TGI in assay [7], in [8] and in assay [9] were more than 32.2 µM, 43.8 µM and more than 47 µM, respectively.

Consider `COc1ccc(OC(=O)CC2Cc3cc(OC)c(OC)c(OC)c3-c3ccc(SC)c(=O)cc32)cc1` (stereo unspecified), for which the TGI in assay [1] was 4.99 µM; in assay [2], 14.9 µM; in assay [3], more than 100 µM; in assay [5], more than 39 µM; in assay [6], 59 µM; in [7], 14.4 µM.

In the case of `CCCC(S(=O)(=O)c1ccccc1)S(=O)(=O)c1ccccc1`, the TGI in assay [1], in assay [2], in assay [3], in assay [10], in assay [5] and in assay [6] was more than 100 µM throughout. The compound also gave a TGI in [7] of more than 100 µM.

Consider `C[CH2][Hg][S]c1ccccc1C(=O)O`, for which the GI50 in assay [1] was 2.64 µM; in [2], 1.18 µM; in assay [4], 1.21 µM; in assay [5] it was 2.58 µM; in assay [7], 1.28 µM; in [8], 1.94 µM. Besides, the GI50 in [9] is 3.88 µM. Moreover, the TGI amounted to 8.98 µM in assay [1]; 2.7 µM in [2]; 2.62 µM in [4]; 12.3 µM in assay [5]; 4.24 µM in assay [7]; 4.79 µM in assay [8]. Moreover, in assay [9], the TGI is 17.7 µM.

Take `ClC1=C(Cl)C(Cl)(Cl)c2c3c(c4c(c21)C(Cl)(Cl)C(Cl)=C4Cl)C(Cl)(Cl)C(Cl)=C3Cl`: the TGI in assay [1], in [2], in [3], in [5] and in assay [7] was more than 100 µM in each case.

Consider `Cc1cccc(NC(=O)/C(=N\N)C(c2cnc3ccc([N+](=O)[O-])cc3n2)[N+](=O)[O-])c1C` (stereo unspecified), for which the TGI in [1], in [2], in assay [3], in assay [10], in assay [5] and in assay [6] was more than 100 µM throughout.

For the compound `O=C1C=C(O)C(=Cc2c(O)cc(O)cc2O)C(O)=C1`, the TGI in assay [1], in assay [2], in assay [3], in [10], in assay [5] and in assay [6] was more than 100 µM throughout. The TGI in [7] was more than 100 µM.

As for `COc1cc(C2(C)SCCCS2)cc(OC)c1OC`, the TGI in assay [1], in assay [2], in [3], in assay [5], in assay [6] and in assay [7] was more than 100 µM throughout.

As to `c1cc(-c2cn3c(n2)SCC3)ccn1`, the TGI is more than 95.2 µM in [1]; more than 100 µM in assay [2]; more than 100 µM in assay [3]; more than 100 µM in [5]; more than 100 µM in [6]; more than 100 µM in assay [7].

With `CC(=O)/C(=C\c1ccccc1O)C(=O)Nc1ccccc1C`, the TGI in assay [1] was more than 100 µM; in assay [2], 37.2 µM; in [3], 37.2 µM; in assay [10], 37.5 µM; in [5] it was 44.7 µM; in [6], 46.9 µM. The compound further came in with a TGI in [7] of 71.4 µM.

On to `Cc1ccccc1-n1c(N)c(-c2nc3ccccc3[nH]2)sc1=S`, for which the TGI in [2] turned out to be 45.4 µM; in assay [3], 36.9 µM; in assay [10] it was 62.4 µM; in [5], 46 µM; in [6], 48.3 µM; in assay [7], 62.2 µM.

For `CC1=C(C(=O)Nc2ccc(Cl)c(Cl)c2)C(c2ccc([N+](=O)[O-])cc2)C(C(=O)Nc2ccc(Cl)c(Cl)c2)=C(C)N1`, the TGI in assay [1] came out at 6.15 µM; in [2], 5.98 µM; in [3], 7.55 µM; in assay [10], 6.16 µM; in [5], 8.7 µM; in assay [6], 4.79 µM. Besides, the TGI in assay [7] worked out at 8.63 µM.

For the compound `O=C1OC(=O)c2c1c(-c1ccccc1)nc1ccccc21`, the TGI in [1], in [2], in assay [3], in assay [10], in assay [5] and in [6] was more than 100 µM each time. In [7], this compound returned a TGI of more than 100 µM.

With `c1ccc2c(c1)CCc1c-2n[nH]c1-c1[nH]nc2c1CCc1ccccc1-2`, the TGI in assay [1], in assay [2], in assay [3], in assay [5] and in assay [6] was more than 100 µM throughout.

Regarding `C[C@@H]1O[C@@H](O[C@@H]2[C@@H](O)[C@H](OCCc3ccc(O)c(O)c3)O[C@H](CO)[C@H]2OC(=O)/C=C/c2ccc(O)c(O)c2)[C@H](O)[C@H](OC2OC[C@](O)(CO)[C@H]2O)[C@H]1O` (stereo partly specified), the GI50 in assay [1] was more than 100 µM; in assay [10], 72 µM; in assay [5], more than 100 µM; in assay [6], 52.6 µM; in assay [7] it was 34.9 µM; in [9] it was 7.41 µM. For the same compound, the TGI in assay [1], in assay [10], in assay [5], in assay [6], in assay [7] and in assay [9] was more than 100 µM in each case.

As to `O=Cc1ccc2c(c1I)OCO2`, the TGI in [1], in [2], in assay [3], in assay [5], in assay [6] and in assay [7] was more than 100 µM each time.

With `N#CCN1C(=O)c2cc([N+](=O)[O-])cc3cc([N+](=O)[O-])cc(c23)C1=O`, the TGI was 45.9 µM in assay [1]; 32.9 µM in [2]; more than 69.2 µM in [3]; 21.3 µM in [10]; 41.9 µM in assay [5]; 14.1 µM in assay [6]. This compound registered a TGI in assay [7] of more than 38.3 µM.

Turning to `O=C1c2ccccc2N2OC3(N4CCCC4)CCCCC3C12c1ccccc1` (stereo unspecified), the TGI was 86 µM in assay [2]; 52.6 µM in assay [3]; 39.4 µM in assay [10]; more than 100 µM in assay [5]; more than 100 µM in assay [7].

As for `CCOC(=O)/C(I)=C/c1cc(OC)c(OC)c(OC)c1`, the TGI in assay [1] is more than 100 µM; in assay [2], 14.1 µM; in assay [3] it was 15.1 µM; in assay [5], 96.1 µM; in assay [6], more than 100 µM; in assay [7], 21.1 µM.

With `COC(=O)C(C(=O)C(=O)Nc1ccc([N+](=O)[O-])cc1)c1nc2ccc([N+](=O)[O-])cc2[nH]c1=O` (stereo unspecified), the TGI in assay [1], in assay [2], in assay [3], in [10], in assay [5] and in [6] was more than 100 µM in each case.

Regarding `COc1ccc(-c2[nH]c3ccccc3c2CCNS(=O)(=O)c2ccc(C)cc2)cc1`, the TGI in [1], in [2], in assay [3], in assay [10], in assay [5] and in [6] was more than 10 µM throughout. Further, in assay [7], the TGI was more than 10 µM.

As for `CN=C1OC2(c3ccccc3)C3=C(OC(=NC)N2C)C(=O)OC3(c2ccccc2)N1C` (stereo unspecified), the TGI in [1], in [2], in assay [3], in assay [4], in assay [5] and in assay [6] was more than 100 µM in each case. The TGI in [8] and in assay [9] was more than 100 µM each time.

For the compound `O=C(/C=C/c1ccc(Cl)c(Cl)c1)c1cccc2ccccc12`, the TGI worked out at 19.3 µM in assay [1]; 22.5 µM in assay [2]; 12.1 µM in [3]; 31.4 µM in assay [5]; 8.53 µM in [7].

For the compound `N#CC1(C#N)C(c2ccccc2)C=CC12OCCCO2` (stereo unspecified), the TGI in assay [1] was more than 100 µM; in [2], 91.4 µM; in [3], more than 100 µM; in [10], 49.2 µM; in assay [5] it was more than 100 µM; in assay [6] it was more than 100 µM. Moreover, the TGI in [7] worked out at 91.7 µM.

For `Cc1ccc(NC(=O)C(=O)C(C(=O)/C=C/c2ccccc2)C2OC(=O)c3ccccc32)c(C)c1` (stereo unspecified), the TGI in [1], in assay [2], in assay [3], in assay [10], in [5] and in [7] was more than 100 µM throughout.

As for `CC1=C(CC2C(=O)N(c3ccccc3)S(=O)(=O)NC2C)C(=O)N(c2ccccc2)S(=O)(=O)N1C` (stereo unspecified), the TGI in [1], in assay [2], in assay [3], in assay [5], in assay [6] and in assay [7] was more than 100 µM throughout.

As to `O=C(NCCNCCO)c1cccc2ccc(-c3ccccc3)nc12`, the TGI in assay [1] is 11.6 µM; in [2], 15.3 µM; in assay [3], 14.6 µM; in assay [10] it was 15.5 µM; in [5], 22.8 µM; in [6], 20.2 µM.

Regarding `COc1ccc(-c2cc(=O)c3c(O)cccc3o2)c(OC)c1OC`, the TGI in assay [1], in [2], in assay [3], in assay [10], in [5] and in assay [6] was more than 100 µM in each case. In addition, the TGI in [7] is more than 100 µM.

With `Cc1cc2c(c(C(N)=O)c1C)-c1cc(Cl)cc(Cl)c1C2=O`, the TGI in assay [1], in assay [2], in assay [3], in assay [10], in [5] and in assay [6] was more than 100 µM in each case. Besides, the TGI in assay [7] is more than 100 µM.

Consider `O=C(c1ccccc1)c1c(CC(O)c2ccncc2)n(C(=O)c2ccccc2)c2ccccc12` (stereo unspecified), for which the TGI was 49.9 µM in [1]; 35 µM in assay [2]; 33.2 µM in [3]; 31.6 µM in assay [5]; 31 µM in assay [6]; 46.1 µM in assay [7].

Take `COc1ccc(NC(=O)C(=O)/C=C(\O)c2ccccc2)cc1`: the TGI in assay [2], in assay [3], in [10], in assay [4], in assay [5] and in [7] was more than 10 µM in each case. For the same compound, the TGI in assay [9] was more than 10 µM.

Consider `CCOC(=O)C1Nc2ccccc2[C@H]2OCC[C@@H]12` (stereo partly specified), for which the TGI in assay [1], in [2], in [3], in [10], in [5] and in assay [6] was more than 100 µM each time.

Consider `Oc1cccc2c1NCCC2`, for which the GI50 in [1] is 0.103 µM; in [2], 0.103 µM; in [3], 5.19 µM; in [10], 0.177 µM; in assay [5], 0.146 µM; in assay [6] it was 0.433 µM. In addition, the GI50 was 0.12 µM in assay [7], 1.25 µM in assay [8] and 0.119 µM in [9]. The TGI in assay [1] is 4.66 µM; in assay [2], more than 37 µM; in assay [3], more than 100 µM; in assay [10], 32.7 µM; in [5] it was 42.5 µM; in assay [6], 2.96 µM. For the same compound, the TGI is more than 100 µM in assay [7], 30.4 µM in assay [8] and more than 100 µM in [9].
